The assay deals with BDF1 mice, P388 leukemia ip, median survival T/C. Kind of assay: NCI In Vivo Anticancer Drug Screen. Data for tumor model P388 Leukemia (intraperitoneal) in B6D2F1 (BDF1) mice. As to conditions: endpoint: median survival time, higher = longer survival. Summed up: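 Vehicle-dosed animals serve as the reference; survival of compound-dosed, tumour-implanted mice is divided by it.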

Setting [1] is: dose: 50.0 mg/kg/injection, schedule: Q01DX009 (ip), vehicle: saline with Tween-80.
Where [2] appears, read: dose: 100.0 mg/kg/injection, schedule: Q01DX009 (ip), vehicle: saline with Tween-80.
The mark [3] stands for this setting: dose: 100.0 mg/kg/injection, schedule: Q04DX003 (ip), vehicle: saline with Tween-80.
The mark [4] stands for this setting: dose: 200.0 mg/kg/injection, schedule: Q01DX009 (ip), vehicle: saline with Tween-80.
Where [5] appears, read: dose: 50.0 mg/kg/injection, schedule: Q01DX001 (ip), vehicle: saline with Tween-80.
Where [6] appears, read: dose: 100.0 mg/kg/injection, schedule: Q01DX001 (ip), vehicle: saline with Tween-80.
Where [7] appears, read: dose: 100.0 mg/kg/injection, schedule: Q01DX001 (ip), vehicle: Klucel (hydroxypropylcellulose) (HPC).
Setting [8] is: dose: 400.0 mg/kg/injection, schedule: Q01DX001 (ip), vehicle: Klucel (hydroxypropylcellulose) (HPC).

SMILES strings stand for the structures. Several values for one entry are separate records, joined by “and”; a condition that tells them apart may be missing. Identical values can stand only once. Toxic doses and inconclusive results are not listed.

Consider `CCCCCCCCCCCCNC(=O)OCCN(CCOC(=O)NCCCCCCCCCCCC)C(=O)COc1ccc(Cl)cc1`, for which the T/C is 100 % of control (dose: 100.0 mg/kg/injection, schedule: Q04DX003 (ip), vehicle: other); 100 % of control (dose: 200.0 mg/kg/injection, schedule: Q04DX003 (ip), vehicle: other); 100 % of control (dose: 400.0 mg/kg/injection, schedule: Q04DX003 (ip), vehicle: other).
In the case of `CCCCCCOC(=O)/C=C(/C)OCCCCCC`, the T/C was 100 % of control under setting [1]; 113 % of control (dose: 87.5 mg/kg/injection, schedule: Q01DX009 (ip), vehicle: saline with Tween-80); 105 % of control under setting [2]; 108 % of control (dose: 100.0 mg/kg/injection, schedule: Q04DX003 (ip), vehicle: saline); 100 % of control (dose: 175.0 mg/kg/injection, schedule: Q01DX009 (ip), vehicle: saline with Tween-80); 104 % of control (dose: 200.0 mg/kg/injection, schedule: Q04DX003 (ip), vehicle: saline). Besides, the T/C (dose: 265.0 mg/kg/injection, schedule: Q01DX009 (ip), vehicle: saline with Tween-80) was 113 % of control; the T/C (dose: 400.0 mg/kg/injection, schedule: Q01DX009 (ip), vehicle: saline with Tween-80) was 118 % of control; the T/C (dose: 400.0 mg/kg/injection, schedule: Q04DX003 (ip), vehicle: saline) is 108 % of control.
On to `CC(=O)[C@@]12OC(C)(C)O[C@@H]1C[C@H]1[C@@H]3C[C@H](C)C4=CC(=O)CC[C@]4(C)[C@H]3CC[C@@]12C`, for which the T/C under setting [2] was 104 % of control; the T/C under setting [3] is 109 % of control; the T/C under setting [4] is 104 % of control; the T/C (dose: 200.0 mg/kg/injection, schedule: Q04DX003 (ip), vehicle: saline with Tween-80) is 95 % of control; the T/C (dose: 400.0 mg/kg/injection, schedule: Q04DX003 (ip), vehicle: saline with Tween-80) was 104 % of control.
As to `NS(=O)(=O)c1ccc(C(=O)NO)cc1`, the T/C is 100 % of control (dose: 100.0 mg/kg/injection, schedule: Q01DX001 (ip), vehicle: saline); 108 % of control (dose: 200.0 mg/kg/injection, schedule: Q01DX001 (ip), vehicle: saline); 108 % of control (dose: 400.0 mg/kg/injection, schedule: Q01DX001 (ip), vehicle: saline).
For `CC(C)c1ccc(NC(=O)Nc2cccc3ccccc23)cc1`, the T/C is 95 % of control under setting [5]; 109 % of control under setting [6]; 100 % of control (dose: 200.0 mg/kg/injection, schedule: Q01DX001 (ip), vehicle: saline with Tween-80).
Take `CCN1/C(=C/C=C/c2oc3ccccc3[n+]2CC)Oc2ccccc21`: the T/C (dose: 0.13 mg/kg/injection, schedule: Q01DX010 (ip), vehicle: saline) is 118 % of control; the T/C (dose: 0.15 mg/kg/injection, schedule: Q01DX009 (ip), vehicle: saline) was 108 % of control; the T/C (dose: 0.25 mg/kg/injection, schedule: Q01DX010 (ip), vehicle: saline) is 118 % of control; the T/C (dose: 0.6 mg/kg/injection, schedule: Q01DX009 (ip), vehicle: Klucel (hydroxypropylcellulose) (HPC)) is 165 % of control; the T/C (dose: 37.5 micrograms/kg/injection, schedule: Q01DX009 (ip), vehicle: Klucel (hydroxypropylcellulose) (HPC)) was 108 % of control; the T/C (dose: 75.0 micrograms/kg/injection, schedule: Q01DX009 (ip), vehicle: Klucel (hydroxypropylcellulose) (HPC)) is 104 % of control. Also, the T/C (dose: 150.0 micrograms/kg/injection, schedule: Q01DX009 (ip), vehicle: Klucel (hydroxypropylcellulose) (HPC)) was 116 % of control.
Consider `C=C(CCCCC)C(=O)/C=C/c1ccc(Cl)cc1`, for which the T/C is 109 % of control under setting [7]; 109 % of control (dose: 200.0 mg/kg/injection, schedule: Q01DX001 (ip), vehicle: Klucel (hydroxypropylcellulose) (HPC)); 118 % of control under setting [8].
On to `O=C(OC1c2ccccc2C2CC21)c1cc([N+](=O)[O-])cc([N+](=O)[O-])c1` (stereo unspecified), for which the T/C is 100 % of control under setting [1], 104 % of control under setting [2] and 104 % of control under setting [4].
Regarding `Oc1ccc2ccccc2c1/C=N\Sc1ccc(Br)cc1`, the T/C was 103 % of control (dose: 25.0 mg/kg/injection, schedule: Q04DX003 (ip), vehicle: saline with Tween-80); 100 % of control (dose: 50.0 mg/kg/injection, schedule: Q04DX003 (ip), vehicle: saline with Tween-80); 112 % of control under setting [3].
Take `Cc1[nH]ccc2c(C)c3nc4ccccc4c3cc12`: the T/C reads like this: (dose: 0.39 mg/kg/injection, schedule: Q01DX009 (ip), vehicle: saline with Tween-80) 116 % of control; (dose: 0.59 mg/kg/injection, schedule: Q01DX009 (ip), vehicle: saline with Tween-80) 100 % of control; (dose: 0.9 mg/kg/injection, schedule: Q01DX009 (ip), vehicle: saline with Tween-80) 150 % of control; (dose: 1.35 mg/kg/injection, schedule: Q01DX009 (ip), vehicle: saline with Tween-80) 160 % of control; (dose: 4.12 mg/kg/injection, schedule: Q01DX009 (ip), vehicle: saline with Tween-80) 168 % of control; (dose: 8.25 mg/kg/injection, schedule: Q01DX009 (ip), vehicle: saline with Tween-80) 177 % of control. In addition, the T/C is, setting by setting: (dose: 16.5 mg/kg/injection, schedule: Q01DX009 (ip), vehicle: saline with Tween-80) 163 % of control; (dose: 25.0 mg/kg/injection, schedule: Q01DX009 (ip), vehicle: saline with Tween-80) 165 % of control and 168 % of control; (dose: 37.5 mg/kg/injection, schedule: Q01DX009 (ip), vehicle: saline with Tween-80) 225 % of control and 154 % of control.
Take `O=c1[nH]cc(CCc2ccccc2)c(=O)[nH]1`: the T/C reads like this: under setting [7], 105 % of control; (dose: 100.0 mg/kg/injection, schedule: Q01DX009 (ip), vehicle: Klucel (hydroxypropylcellulose) (HPC)) 100 % of control; (dose: 100.0 mg/kg/injection, schedule: Q04DX003 (ip), vehicle: Klucel (hydroxypropylcellulose) (HPC)) 104 % of control; (dose: 200.0 mg/kg/injection, schedule: Q01DX009 (ip), vehicle: Klucel (hydroxypropylcellulose) (HPC)) 88 % of control; (dose: 200.0 mg/kg/injection, schedule: Q04DX003 (ip), vehicle: Klucel (hydroxypropylcellulose) (HPC)) 100 % of control; under setting [8], 105 % of control. Further, for the setting “dose: 400.0 mg/kg/injection, schedule: Q01DX009 (ip), vehicle: Klucel (hydroxypropylcellulose) (HPC)”, the T/C was 92 % of control.
As to `C[C@]12CC[C@H]3[C@@H](CC[C@]4(O)C[C@@H](O)CC[C@]34/C=N/O)[C@@]1(O)CC[C@@H]2C1=COC(=O)C1`, the T/C by setting is: (dose: 1.87 mg/kg/injection, schedule: Q01DX010 (ip), vehicle: carboxymethylcellulose (CMC)) 94 % of control; (dose: 3.75 mg/kg/injection, schedule: Q01DX010 (ip), vehicle: carboxymethylcellulose (CMC)) 100 % of control; (dose: 7.5 mg/kg/injection, schedule: Q01DX010 (ip), vehicle: carboxymethylcellulose (CMC)) 111 % of control; (dose: 15.0 mg/kg/injection, schedule: Q01DX010 (ip), vehicle: carboxymethylcellulose (CMC)) 116 % of control; (dose: 30.0 mg/kg/injection, schedule: Q01DX010 (ip), vehicle: carboxymethylcellulose (CMC)) 111 % of control; (dose: 60.0 mg/kg/injection, schedule: Q01DX010 (ip), vehicle: carboxymethylcellulose (CMC)) 122 % of control.
Take `C/C(=N/N(C)C)c1nc(N)nc(N)c1-c1ccc(Cl)cc1`: the T/C reads like this: (dose: 25.0 mg/kg/injection, schedule: Q01DX001 (ip), vehicle: saline with Tween-80) 102 % of control; under setting [5], 109 % of control; under setting [6], 90 % of control and 96 % of control.
Turning to `c1ccc(CSC2=NCCS2)cc1`, the T/C is, setting by setting: (dose: 100.0 mg/kg/injection, schedule: Q01DX009 (ip), vehicle: saline) 113 % of control; (dose: 200.0 mg/kg/injection, schedule: Q01DX009 (ip), vehicle: saline) 104 % of control; (dose: 400.0 mg/kg/injection, schedule: Q01DX009 (ip), vehicle: saline) 113 % of control.
For `CCC[CH2][Sn]1([CH2]CCC)[O]OC2(CCCCC2)[O]1`, the T/C by setting is: (dose: 1.25 mg/kg/injection, schedule: Q01DX009 (ip), vehicle: Klucel (hydroxypropylcellulose) (HPC)) 115 % of control; (dose: 1.57 mg/kg/injection, schedule: Q04DX003 (ip), vehicle: saline sonified) 122 % of control; (dose: 3.13 mg/kg/injection, schedule: Q04DX003 (ip), vehicle: saline sonified) 116 % of control; (dose: 5.0 mg/kg/injection, schedule: Q01DX009 (ip), vehicle: Klucel (hydroxypropylcellulose) (HPC)) 115 % of control.

For the origin of these results see PubChem BioAssay AID328 (DTP/NCI, 2004).
